# Compound: COc1cc([C@@H]2c3cc4c(cc3[C@@H](O[C@@H]3O[C@@H]5CO[C@@H](C)O[C@H]5[C@H](O)[C@H]3O)[C@H]3COC(=O)[C@H]23)OCO4)cc(OC)c1O [Etoposide] + Cc1nc(NC(=O)N2CCC[C@H]2C(N)=O)sc1-c1ccnc(C(C)(C)C(F)(F)F)c1 [Alpelisib] (partner 2 µM)
# Assay: relative viability (nuclei count vs DMSO), 5 days (fraction); higher = more cells survive
# Conditions: first compound 0.01 µM
# Method in brief: (§1)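 A single step with final 0.05% Triton X-100, 1% formaldehyde and 1 ug/ml Hoechst fixed the cells and stained nuclei 5 days after treatment. Lung cancer cell lines in 1536-well plates had been treated by pin tool the day after seeding with one drug alone or a fixed anchor-drug dose plus five library-drug doses (not always all listed) in √10 steps, and nuclei were counted on 4× images. Relative viability is the ratio of nuclei in treated wells to nuclei in vehicle wells, taken as the median of duplicate plates.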
row,Cell Line,relative viability
1,NCI-H1355,0.811
2,NCI-H322M,0.712
3,NCI-H1437,0.915
4,NCI-H1755,0.919
5,HCC-15,0.894
6,NCI-H1793,0.563
7,PC-3 [JPC-3],0.946
8,EKVX,0.693
9,LC-2-ad,0.888
10,NCI-H1944,0.742
11,NCI-H1975,0.621
12,ABC-1,1.03
13,NCI-H358,0.873
14,RERF-LC-KJ,0.73

# Same assay, conditions: first compound 0.03162 µM
row,Cell Line,relative viability
1,NCI-H1355,0.969
2,NCI-H322M,0.786
3,NCI-H1437,0.945
4,NCI-H1755,0.907
5,HCC-15,0.898
6,NCI-H1793,0.78
7,PC-3 [JPC-3],1.05
8,EKVX,0.974
9,LC-2-ad,0.911
10,NCI-H1944,0.969
11,NCI-H1975,0.822
12,ABC-1,1.1
13,NCI-H358,0.809
14,RERF-LC-KJ,0.924

# Same assay, conditions: first compound 0.1 µM
row,Cell Line,relative viability
1,NCI-H1355,0.343
2,NCI-H322M,0.663
3,NCI-H1437,0.883
4,NCI-H1755,0.888
5,HCC-15,0.721
6,PC-3 [JPC-3],0.833
7,EKVX,0.584
8,LC-2-ad,0.846
9,NCI-H1944,0.645
10,NCI-H1975,0.693
11,ABC-1,1.02
12,NCI-H358,0.646
13,RERF-LC-KJ,0.513

# Same assay, conditions: first compound 0.3162 µM
row,Cell Line,relative viability
1,NCI-H1355,0.53
2,NCI-H322M,0.658
3,NCI-H1437,0.42
4,NCI-H1755,0.871
5,HCC-15,0.333
6,NCI-H1793,0.718
7,PC-3 [JPC-3],0.984
8,EKVX,0.693
9,LC-2-ad,0.532
10,NCI-H1944,0.564
11,NCI-H1975,0.56
12,ABC-1,0.577
13,NCI-H358,0.246
14,RERF-LC-KJ,0.852

# Same assay, conditions: first compound 1 µM
row,Cell Line,relative viability
1,NCI-H1355,0.304
2,NCI-H322M,0.472
3,NCI-H1437,0.256
4,NCI-H1755,0.639
5,HCC-15,0.122
6,NCI-H1793,0.341
7,PC-3 [JPC-3],0.777
8,EKVX,0.343
9,LC-2-ad,0.172
10,NCI-H1944,0.249
11,NCI-H1975,0.273
12,ABC-1,0.243
13,NCI-H358,0.159
14,RERF-LC-KJ,0.622

# Compound: CC1=C(N=C(N=C1N)[C@H](CC(=O)N)NC[C@@H](C(=O)N)N)C(=O)N[C@@H]([C@H](C2=CN=CN2)OC3C(C(C(C(O3)CO)O)O)OC4C(C(C(C(O4)CO)O)OC(=O)N)O)C(=O)N[C@H](C)[C@H]([C@H](C)C(=O)N[C@@H]([C@@H](C)O)C(=O)NCCC5=NC(=CS5)C6=NC(=CS6)C(=O)NCCC[S+](C)C)O [Bleomycin] + Cc1cc(Nc2cc(N3CCN(C)CC3)nc(Sc3ccc(NC(=O)C4CC4)cc3)n2)n[nH]1 [Tozasertib] (partner 0.1 µM)
# Assay: as above
# Conditions: first compound 0.01 µM; main component drawn
# Method in brief: as §1
row,Cell Line,relative viability
1,NCI-H1355,0.511
2,NCI-H322M,0.424
3,NCI-H1437,0.369
4,NCI-H1755,0.54
5,HCC-15,0.308
6,NCI-H1793,0.339
7,PC-3 [JPC-3],0.799
8,EKVX,0.434
9,LC-2-ad,0.395
10,NCI-H1944,0.196
11,NCI-H1975,0.485
12,ABC-1,0.199
13,NCI-H358,0.103
14,RERF-LC-KJ,0.311

# Same assay, conditions: first compound 0.03162 µM; main component drawn
row,Cell Line,relative viability
1,NCI-H1355,0.596
2,NCI-H322M,0.496
3,NCI-H1437,0.404
4,NCI-H1755,0.54
5,HCC-15,0.343
6,NCI-H1793,0.308
7,PC-3 [JPC-3],0.813
8,EKVX,0.413
9,LC-2-ad,0.354
10,NCI-H1944,0.197
11,NCI-H1975,0.466
12,ABC-1,0.209
13,NCI-H358,0.101
14,RERF-LC-KJ,0.339

# Same assay, conditions: first compound 0.1 µM; main component drawn
row,Cell Line,relative viability
1,NCI-H1355,0.478
2,NCI-H322M,0.473
3,NCI-H1437,0.369
4,NCI-H1755,0.636
5,HCC-15,0.303
6,NCI-H1793,0.362
7,PC-3 [JPC-3],0.781
8,EKVX,0.365
9,LC-2-ad,0.34
10,NCI-H1944,0.187
11,NCI-H1975,0.42
12,ABC-1,0.197
13,NCI-H358,0.0984
14,RERF-LC-KJ,0.297

# Same assay, conditions: first compound 0.3162 µM; main component drawn
row,Cell Line,relative viability
1,NCI-H1355,0.255
2,NCI-H322M,0.396
3,NCI-H1437,0.309
4,NCI-H1755,0.468
5,HCC-15,0.148
6,NCI-H1793,0.191
7,PC-3 [JPC-3],0.537
8,EKVX,0.191
9,LC-2-ad,0.247
10,NCI-H1944,0.147
11,NCI-H1975,0.152
12,ABC-1,0.178
13,NCI-H358,0.106
14,RERF-LC-KJ,0.234

# Same assay, conditions: first compound 1 µM; main component drawn
row,Cell Line,relative viability
1,NCI-H1355,0.224
2,NCI-H322M,0.38
3,NCI-H1437,0.324
4,NCI-H1755,0.333
5,HCC-15,0.153
6,NCI-H1793,0.171
7,PC-3 [JPC-3],0.492
8,EKVX,0.204
9,LC-2-ad,0.276
10,NCI-H1944,0.12
11,NCI-H1975,0.0955
12,ABC-1,0.198
13,NCI-H358,0.11
14,RERF-LC-KJ,0.193

# — the supplement of paper PMC10307832
